Test results as given in ChEMBL document CHEMBL4831528, “Discovery of Novel Pterostilbene-Based Derivatives as Potent and Orally Active NLRP3 Inflammasome Inhibitors with Inflammatory Activity for Colitis” (J Med Chem, 2021).
Activity calls are given as the source filed them. The rule behind the calls is not given here.

Assays:
[1] = test system: Mus musculus; experiment: Protection against DSS-induced acute ulcerative colitis in C57BL/6 mouse assessed as reduction in decrease in goblet cells at 10 to 20 mg/kg, ig administered for 7 days by Hematoxylin and eosin staining based optical microscopy; type: functional, organism-based; settings: dose 10-20 mg/kg, time 7.0 day
[2] = Cmax in mouse at 20 mg/kg, po measured up to 24 hrs by LC-MS/MS analysis; type: ADME, organism-based; parameters: route oral, dose 20 mg/kg, time <=24; settings: in vivo
[3] = molecular target: NACHT, LRR and PYD domains-containing protein 3 (Mus musculus) (UniProt Q8R4B8); experiment: Inhibition of NLRP3 inflammasome activation in LPS-stimulated mouse bone marrow-derived macrophages assessed as reduction in cleaved IL-1beta secretion preincubated for 30 mins followed by nigericin addition and measured after 30 mins by Western blot analysis; type: tissue-based; settings: Macrophage, time 60.0 min
[4] = Intrinsic clearance in mouse liver microsomes preincubated for 5 mins followed by NADPH addition and measured after 5 to 60 mins by LC-MS/MS analysis; type: ADME, Microsome; settings: time 5-60 min, read-out: CLH
[5] = molecular target: NACHT, LRR and PYD domains-containing protein 3 (Mus musculus) (UniProt Q8R4B8); experiment: Inhibition of NLRP3 inflammasome activation in LPS-stimulated mouse bone marrow-derived macrophages assessed as reduction in pro IL-1beta secretion in cell lysate at 2 uM preincubated for 30 mins followed by ATP addition and measured after 0.5 hrs by Western blot analysis; type: subcellular; settings: Macrophage, time 60.0 min
[6] = test system: Mus musculus; experiment: Downregulation of IL-1beta expression in colon of C57BL/6 mouse model of DSS-induced ulcerative colitis at 10 to 20 mg/kg, ig administered for 7 days by Western blot analysis; type: functional, organism-based; settings: dose 10-20 mg/kg, time 7.0 day
[7] = molecular target: NACHT, LRR and PYD domains-containing protein 3 (Mus musculus) (UniProt Q8R4B8); experiment: Inhibition of NLRP3 inflammasome activation in LPS-stimulated mouse bone marrow-derived macrophages assessed as attenuation of ASC monomer at 1 to 4 uM preincubated for 30 mins followed by nigericin addition and measured after 0.5 hrs by Western blot analysis; type: tissue-based; settings: Macrophage, dose 1-4 µM, time 60.0 min
[8] = molecular target: T1, Interferon-inducible protein AIM2 (Mus musculus) (UniProt Q91VJ1); experiment: Inhibition of AIM2 inflammasome activation in LPS-stimulated mouse bone marrow-derived macrophages assessed as reduction in IL-1beta secretion at 2 uM preincubated for 30 mins followed by poly-(dA:dT) addition and measured after 4 hrs by ELISA; type: tissue-based; settings: Macrophage, time 4.5 hrs
T1 sequence (whole entry): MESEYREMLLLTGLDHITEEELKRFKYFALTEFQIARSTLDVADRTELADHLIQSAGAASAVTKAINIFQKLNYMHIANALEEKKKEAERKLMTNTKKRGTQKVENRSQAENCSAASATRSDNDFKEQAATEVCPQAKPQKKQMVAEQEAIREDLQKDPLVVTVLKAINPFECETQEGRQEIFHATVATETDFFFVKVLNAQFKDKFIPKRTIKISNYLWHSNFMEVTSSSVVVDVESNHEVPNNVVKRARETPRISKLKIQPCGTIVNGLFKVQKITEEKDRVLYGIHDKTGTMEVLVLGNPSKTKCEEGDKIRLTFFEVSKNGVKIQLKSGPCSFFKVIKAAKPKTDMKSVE

[9] = test system: BMDM; experiment: Effect on pro-caspase1(p45) expression in LPS-stimulated mouse bone marrow-derived macrophages at 0.5 to 2 uM preincubated for 30 mins followed by nigericin addition and measured after 30 mins by Western blot analysis; type: functional, tissue-based; settings: dose 0.5-2 µM, time 60.0 min
[10] = Inhibition of ROS production in LPS-stimulated mouse bone marrow-derived macrophages at 1 to 4 uM preincubated for 30 mins followed by nigericin addition and measured after 0.5 hrs by Western blot analysis; settings: Macrophage, dose 1-4 µM, time 60.0 min
[11] = Toxicity in C57BL/6 mouse assessed as effect on lung at 20 to 40 mg/kg, ig administered for 28 days; type: organism-based; settings: in vivo, po, 672 h, dose 20-40 mg/kg, time 28 day
[12] = molecular target: NACHT, LRR and PYD domains-containing protein 3 (Mus musculus) (UniProt Q8R4B8); experiment: Inhibition of NLRP3 inflammasome activation in LPS-stimulated mouse bone marrow-derived macrophages assessed as reduction in cell pyrolysis at 5 to 25 uM preincubated for 30 mins followed by nigericin addition and measured after 30 mins by Western blot analysis; type: tissue-based; settings: Macrophage, dose 5-25 µM, time 60.0 min
[13] = Toxicity in C57BL/6 mouse assessed as induction of anorexia at 20 to 40 mg/kg, ig administered for 28 days; type: organism-based; settings: in vivo, po, 672 h, dose 20-40 mg/kg, time 28 day
[14] = test system: L02; experiment: Cytotoxicity against human L-02 cells incubated for 24 hrs by MTT assay; type: cell-based; settings: L02, 24 h
[15] = Toxicity in C57BL/6 mouse assessed as weight loss at 20 to 40 mg/kg, ig administered for 28 days; type: organism-based; settings: in vivo, po, 672 h, dose 20-40 mg/kg, time 28 day
[16] = molecular target: NACHT, LRR and PYD domains-containing protein 3 (Mus musculus) (UniProt Q8R4B8); experiment: Inhibition of NLRP3 inflammasome activation in LPS-stimulated mouse bone marrow-derived macrophages assessed as reduction in NLRP3/ASC protein-protein interaction preincubated for 30 mins followed by nigericin addition and measured after 30 mins by immunoprecipitation method; type: tissue-based; settings: Macrophage, time 60.0 min
[17] = Clearance in mouse at 2 mg/kg, iv measured after 0.08 to 24 hrs by LC-MS/MS analysis; type: ADME, organism-based; settings: in vivo, time 0.08-24 hrs
[18] = molecular target: NACHT, LRR and PYD domains-containing protein 3 (Mus musculus) (UniProt Q8R4B8); experiment: Inhibition of NLRP3 inflammasome activation in LPS-stimulated mouse bone marrow-derived macrophages assessed as attenuation of ASC polymer at 1 to 4 uM preincubated for 30 mins followed by nigericin addition and measured after 0.5 hrs by Western blot analysis; type: tissue-based; settings: Macrophage, dose 1-4 µM, time 60.0 min
[19] = Hepatic clearance in human liver microsomes preincubated for 5 mins followed by NADPH addition and measured after 5 to 60 mins by LC-MS/MS analysis; type: ADME, Microsome; settings: time 5-60 min
[20] = molecular target: NLR family CARD domain-containing protein 4 (Mus musculus) (UniProt Q3UP24); experiment: Inhibition of NLRC4 inflammasome activation in LPS-stimulated mouse bone marrow-derived macrophages assessed as reduction in IL-1beta secretion at 2 uM preincubated for 30 mins followed by Salmonella addition and measured after 4 hrs by ELISA; type: tissue-based; settings: Macrophage, time 4.5 hrs
[21] = Toxicity in C57BL/6 mouse assessed as loose fur at 20 to 40 mg/kg, ig administered for 28 days; type: organism-based; settings: in vivo, po, 672 h, dose 20-40 mg/kg, time 28 day
[22] = molecular target: NACHT, LRR and PYD domains-containing protein 3 (Mus musculus) (UniProt Q8R4B8); experiment: Inhibition of NLRP3 inflammasome activation in LPS-stimulated mouse bone marrow-derived macrophages assessed as reduction in activated caspase1 p20 in supernatant at 2 uM preincubated for 30 mins followed by nigericin addition and measured after 0.5 hrs by Western blot analysis; type: tissue-based; settings: Macrophage, time 60.0 min

Sequence of NACHT, LRR and PYD domains-containing protein 3 (Mus musculus) (Q8R4B8 whole entry, the tested form may be a part): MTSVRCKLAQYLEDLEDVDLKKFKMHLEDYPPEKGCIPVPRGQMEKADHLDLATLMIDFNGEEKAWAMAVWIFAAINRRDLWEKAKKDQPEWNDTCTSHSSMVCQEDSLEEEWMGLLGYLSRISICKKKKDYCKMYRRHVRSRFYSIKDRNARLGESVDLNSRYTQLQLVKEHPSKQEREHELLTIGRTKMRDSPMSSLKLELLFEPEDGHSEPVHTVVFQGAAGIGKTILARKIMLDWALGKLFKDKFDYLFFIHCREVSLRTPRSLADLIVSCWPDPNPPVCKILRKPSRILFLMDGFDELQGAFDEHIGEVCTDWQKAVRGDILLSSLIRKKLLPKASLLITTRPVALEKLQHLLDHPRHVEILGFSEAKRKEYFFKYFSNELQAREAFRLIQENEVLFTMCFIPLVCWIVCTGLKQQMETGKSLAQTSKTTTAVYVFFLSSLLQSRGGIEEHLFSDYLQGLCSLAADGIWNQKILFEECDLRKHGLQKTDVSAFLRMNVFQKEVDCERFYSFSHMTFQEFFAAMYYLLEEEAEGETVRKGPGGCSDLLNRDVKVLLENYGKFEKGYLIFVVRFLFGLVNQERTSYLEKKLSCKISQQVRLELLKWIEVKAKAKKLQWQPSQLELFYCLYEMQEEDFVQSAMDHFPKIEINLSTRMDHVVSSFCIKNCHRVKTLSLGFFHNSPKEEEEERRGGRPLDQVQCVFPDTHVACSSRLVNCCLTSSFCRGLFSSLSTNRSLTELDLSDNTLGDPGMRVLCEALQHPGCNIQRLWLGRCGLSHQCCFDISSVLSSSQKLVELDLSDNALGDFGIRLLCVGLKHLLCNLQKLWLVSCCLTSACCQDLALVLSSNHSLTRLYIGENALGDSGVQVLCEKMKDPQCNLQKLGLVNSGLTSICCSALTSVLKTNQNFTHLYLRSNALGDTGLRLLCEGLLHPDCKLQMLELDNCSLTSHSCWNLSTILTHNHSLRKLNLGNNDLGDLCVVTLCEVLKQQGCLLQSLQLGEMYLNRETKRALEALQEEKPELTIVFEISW
Sequence of NLR family CARD domain-containing protein 4 (Mus musculus) (Q3UP24 whole entry, the tested form may be a part): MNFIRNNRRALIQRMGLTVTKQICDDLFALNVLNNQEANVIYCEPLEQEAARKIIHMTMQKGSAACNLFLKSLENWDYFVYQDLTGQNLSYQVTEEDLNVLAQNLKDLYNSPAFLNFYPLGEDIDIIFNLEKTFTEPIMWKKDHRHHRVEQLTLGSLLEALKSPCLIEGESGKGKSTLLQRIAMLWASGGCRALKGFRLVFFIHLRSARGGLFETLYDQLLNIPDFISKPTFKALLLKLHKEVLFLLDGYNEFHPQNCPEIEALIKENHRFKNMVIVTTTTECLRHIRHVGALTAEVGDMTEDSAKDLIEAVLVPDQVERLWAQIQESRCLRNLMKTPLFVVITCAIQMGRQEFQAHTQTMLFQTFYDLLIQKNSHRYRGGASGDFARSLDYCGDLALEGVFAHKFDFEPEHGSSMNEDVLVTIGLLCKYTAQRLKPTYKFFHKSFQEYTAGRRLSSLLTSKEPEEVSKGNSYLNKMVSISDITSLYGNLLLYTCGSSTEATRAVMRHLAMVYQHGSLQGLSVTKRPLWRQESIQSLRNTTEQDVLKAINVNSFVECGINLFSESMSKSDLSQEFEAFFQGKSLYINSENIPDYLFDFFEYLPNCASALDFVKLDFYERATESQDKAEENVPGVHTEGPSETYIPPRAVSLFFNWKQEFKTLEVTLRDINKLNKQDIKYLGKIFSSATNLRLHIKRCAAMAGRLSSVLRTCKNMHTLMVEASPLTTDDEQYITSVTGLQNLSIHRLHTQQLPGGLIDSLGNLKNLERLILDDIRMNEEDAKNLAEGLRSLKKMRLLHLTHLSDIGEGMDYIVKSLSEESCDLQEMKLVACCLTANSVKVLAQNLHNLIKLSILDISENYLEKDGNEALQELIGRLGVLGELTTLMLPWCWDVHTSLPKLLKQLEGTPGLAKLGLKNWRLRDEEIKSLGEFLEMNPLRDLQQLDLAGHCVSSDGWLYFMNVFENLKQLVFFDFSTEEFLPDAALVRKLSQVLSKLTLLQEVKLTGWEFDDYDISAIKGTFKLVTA

In the case of `COc1cc(/C=C/c2ccc(NC(=O)C3CC3)cc2)c(/C=C/[N+](=O)[O-])c(OC)c1`, the Activity [1] is reported as “Active”, the Cmax [2] is reported as 95.1 ng/mL and the inhibition [3] is reported as “Dose-Dependent Effect”. The microsomal CLint [4] was 32 µL/min/mg, the inhibition [5] was “Active” and the Activity [6] was “Active”. The inhibition [7] was “Active”, the inhibition [8] was “inactive” and the Activity [9] was “inactive”. The inhibition [10] was “inactive”, the Activity [11] was “Non-Toxic” and the inhibition [12] was “Active”. The Activity [13] was “Non-Toxic”, the IC50 [14] was over 100 µM and the Activity [15] was “Non-Toxic”. The inhibition [16] was “Dose-Dependent Effect”, the clearance [17] was 87.5 mL/min/kg and the inhibition [18] was “Active”. The CLhep predicted [19] was 11 mL/min/kg, the inhibition [20] was “inactive” and the Activity [21] was “Non-Toxic”. The inhibition [22] was “Active”.
